{"source": "patent EP3095787A1", "about": "“[…] ACTIVE COMPOUNDS AS DAG-LIPASE INHIBITORS” (Universiteit Leiden, priority 2015, dated 2016)", "key": {"CA1 pyramidal neurons": {"tested_on": "CA1 pyramidal neurons", "assay": "Depolarization-induced suppression of inhibition (DSI) in hippocampal slices, whole-cell voltage clamp", "assay_type": "cell-based", "details": "10 µM bath application, pre-incubated at least 30 min; mouse hippocampal slices", "source_text": "Experimental evidence, which supports a role of DAGL-α in short-term synaptic plasticity, has been obtained through the use of genetically engineered mice that constitutively lack DAGL-α. DSI was absent in these DAGL-α knock-out mice, but not in their DAGL-β knock-out counter parts.\nHorizontal slices (300 µm) of the hippocampus were obtained from male C57BL/6 mice (Harlan, the Netherlands) aged 14-19 days postnatal. Experiments were approved by the animal welfare committee of the University of Amsterdam. […] Inhibitory postsynaptic currents (IPSCs) were evoked with a glass stimulus electrode (filled with ACSF) positioned in the stratum radiatum, close to the recorded neuron. […]\nStock solutions (10 mM) of LEI105 were made in dimethylsulfoxide (DMSO), which was diluted to the final concentration (10 µM) in ACSF. […] Control experiments were performed on neurons recorded in slices pre-incubated with and in the continuous presence of 0.1 % DMSO.\nFor each CA1 neuron IPSCs were evoked with 5 sec intervals during a 2-min baseline period, prior to the stimulus evoking depolarization-induced suppression of inhibition (DSI). The maximum amplitude of each IPSC was determined and the mean value of the IPCS amplitudes over this period was calculated and used to normalize the evoked synaptic response. […]"}, "hDAGL-α": {"target": "T1, hDAGL-α (Homo sapiens, UniProt Q9Y4D2)", "T1 sequence (Q9Y4D2 1-1042)": "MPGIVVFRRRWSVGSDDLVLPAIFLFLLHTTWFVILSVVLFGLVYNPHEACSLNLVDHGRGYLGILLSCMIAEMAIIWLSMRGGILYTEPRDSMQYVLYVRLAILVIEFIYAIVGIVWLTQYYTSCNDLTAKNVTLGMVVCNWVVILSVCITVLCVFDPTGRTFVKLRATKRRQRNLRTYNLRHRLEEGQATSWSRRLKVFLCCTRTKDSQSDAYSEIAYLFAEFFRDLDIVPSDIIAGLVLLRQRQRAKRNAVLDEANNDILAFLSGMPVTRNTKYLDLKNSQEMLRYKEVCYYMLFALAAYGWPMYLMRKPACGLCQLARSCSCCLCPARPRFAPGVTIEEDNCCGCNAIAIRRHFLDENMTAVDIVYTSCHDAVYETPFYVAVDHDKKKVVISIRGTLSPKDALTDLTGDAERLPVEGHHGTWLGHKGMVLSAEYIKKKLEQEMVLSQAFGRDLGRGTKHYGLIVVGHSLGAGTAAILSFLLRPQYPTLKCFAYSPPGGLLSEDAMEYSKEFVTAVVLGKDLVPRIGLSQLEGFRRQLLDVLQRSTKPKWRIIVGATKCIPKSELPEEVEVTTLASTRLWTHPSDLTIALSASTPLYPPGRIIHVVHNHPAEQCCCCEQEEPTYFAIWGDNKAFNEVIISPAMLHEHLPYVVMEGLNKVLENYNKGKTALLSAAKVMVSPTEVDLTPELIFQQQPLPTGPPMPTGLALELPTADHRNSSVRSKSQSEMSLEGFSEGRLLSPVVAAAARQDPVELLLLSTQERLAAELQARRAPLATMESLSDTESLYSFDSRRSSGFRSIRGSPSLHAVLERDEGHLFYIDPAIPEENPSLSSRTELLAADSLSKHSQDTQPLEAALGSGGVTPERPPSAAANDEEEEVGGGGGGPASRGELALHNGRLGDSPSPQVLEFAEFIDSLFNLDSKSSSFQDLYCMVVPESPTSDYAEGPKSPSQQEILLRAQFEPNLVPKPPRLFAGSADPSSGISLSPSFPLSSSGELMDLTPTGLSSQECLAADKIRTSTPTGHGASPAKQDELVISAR", "assay": "Mode of action (reversibility) experiment: size exclusion chromatography, then MB064 labeling", "assay_type": "biochemical", "design": "expressed in transfected cells", "details": "pre-incubation at IC80 concentration; remaining activity visualized with MB064; n=3", "method": "To determine the mode of action (reversible versus irreversible) of the inventive compounds, an experiment in which human DAGL-α membranes were pre-incubated at the IC80 concentration of compound 25 or the irreversible DAGL inhibitor KT-109 was performed."}}, "note": "Entries after “also recorded” stand apart in the source; their conditions may differ."}
{"smiles": "Cc1ccc(-c2cnc3nc(C(=O)CCCCCc4ccccc4)oc3c2)cc1", "note": "[Compound 25, 1-(6-(p-Tolyl)oxazolo[4,5-b]pyridin-2-yl)-6-phenylhexan-1-one]", "values": [{"measurement": "DSI", "setting": "CA1 pyramidal neurons", "result": "clear suppression of DSI; also recorded: DSI is reduced"}, {"measurement": "recovery of DAGL-α activity after size exclusion chromatography", "setting": "hDAGL-α", "result": "reversibility"}]}
